Assay results reported in US6495538B2, “Zinc ionophores as therapeutic agents” (Zinc Therapeutics, Canada Inc., priority 1999, dated 2002).

Assays:
[1] = test system: cultured HUVEC, isolated cardiac myocytes, and cultured cerebellar neurons; assay: Zinc ionophore screening with Fura-2 loaded cells; assay type: cell-based, human, rabbit, mouse; conditions: for zinc ionophore activity: 1 μM zinc-complexed holo-ionophore, slope of Fura-2 fluorescence ratio 340/380 nm
Experimental: Human umbilical vein endothelial cells (HUVEC) were purchased from Clonetics (San Diego, Calif.) and passages 2-4 were used for these studies. Cells were cultured on flame-sterilized glass coverslips in Endothelial Basal Medium (Clonetics) supplemented with 10 ng/ml human recombinant epidermal growth factor, 1.0 ug/ml hydrocortisone, 50 ug/ml gentamicin, 50 ng/ml amphotetericin B, 12 ug/ml bovine brain extract and 2% v/v fetal bovine serum (all from Clonetics), in a humidified chamber at 37° C. and 5% CO2. To maintain cell populations, proliferating HUVEC were passaged at 80-90% confluency.
Cardiac myocytes were isolated from the ventricular septum of adult rabbit hearts, following collagenase digestion, in a manner similar to that described previously (Turan, B. et al., (1997) Am. J. Physiol. 272:H2095-H2106). The modification consisted of introducing low concentrations of CaCl2 during the perfusion with collagenase and the dispersion of the myocytes. Hearts were perfused for about 2 min by gravity under a hydrostatic pressure of 1 m, with a nominally Ca^2+-free solution containing (in mM): NaCl, 145; KCl, 5; MgSO4, 1.2; Na2HPO4, 1.8; HEPES, 5; glucose, 10; pH adjusted to 7.4 with NaOH. Forty ml of this perfusate were then supplemented with collagenase (1 mg/ml) and perfusion was continued with recirculation. […] The flow rate was then adjusted to 15 ml/min and 50 μM CaCl2 was added to the collagenase solution. Perfusion with this solution was continued for another 15 to 18 min, followed by a 2 min washout of the enzyme with fresh perfusate containing 100 μM CaCl2 and no collagenase. The hearts were then removed from the apparatus and the ventricular septum isolated and minced. Dissociation of the cells was obtained by gentle agitation of the minced tissue in 50 ml of the same perfusing solution. Following filtration through a 200 μm nylon mesh, the cells were allowed to settle and the supernatant was replaced with a solution containing 2 mM CaCl2. Cells were kept at 37° C. in this pre-oxygenated solution and were studied within 8 hours after isolation, cellular viability was ensured by regularly replacing the incubation solution.
Primary cultures of mouse cerebellar granule neurons were obtained from dissociated cerebella of postnatal day 8 or 9 mice according to the following protocol (Cregan et al., (1999) J. Neurosci. 19:7860-7869, incorporated herein by reference). Brains were removed and placed into separate dishes containing solution A (124 mM NaCl, 5.37 mM KCl, 1 mM NaH2 PO4 , 1.2 mM MgSO4 , 14.5 mM D-(1)-glucose, 25 mM HEPES, 3 mg/ml BSA, pH 7.4) in which the cerebella were dissected, meninges removed, and tissue sliced into small pieces. The tissue was briefly centrifuged and transferred to solution A containing 0.25 mg/ml trypsin, then incubated at 37° C. for 18 min. After the addition of 0.082 mg/ml trypsin inhibitor (Boehringer Mannheim, Indianapolis, IN) and 0.25 mg/ml DNase I (Boehringer Mannheim), the tissue was incubated at 25° C. for 2 min. After a brief centrifugation, the resulting pellet was gently titrated in solution A yielding suspension that was further incubated for 10 min at 25° C. in solution A containing 2.7 mM MgSO4 and 0.03 mM CaCl2. After a final centrifugation the pellet was resuspended in EMEM media (Sigma, St. Louis, Mo.) containing 10% dialyzed FBS (Sigma), 25 mM KCl, 2 mM glutamine (Life Technologies BRL, Gaithersburg, Md.), 25 mM glucose, and 0.1 mg/ml gentamycin (Sigma) and filtered through a cell strainer (size 70 μm; Falcon). Cells were plated on glass coverslips coated with poly-D-lysine (Sigma) in Nunc four-well dishes at a density of 1.5×10^6 cells per milliliter of medium. Cytosine-β-arabinoside (10 μM; Sigma) was added 24 hr after plating.
In order to ascertain that the transported ion was indeed Zn^2+, and not some other divalent cation contaminant, the test compounds were first complexed with zinc.

[2] = test system: PC12 cells; assay: Differentiated PC12 cells, H2O2-induced apoptosis; assay type: cell-based, rat; conditions: concentrations equivalent to those of zinc-pyrithione; not shown
Excerpt: Control cells were pretreated with the carrier DMSO alone.

[3] = test system: PTZ-induced seizures; assay: Subcutaneous PTZ (pentylenetetrazole) test; assay type: in vivo, rat; conditions: 62.5 nmol/kg i.p.
Excerpt: The ability of a test compound to inhibit PTZ-induced clonic and tonic convulsions is currently regarded as predictive of efficacy against “absence” seizures and/or myoclonic seizures (Suzdak, Jansen, 1995, Epilepsia, 36(6):612-626). The pharmacological profile of the PTZ test varies depending on the endpoint selected: PTZ can produce myoclonic jerks, repeated clonic seizures of forelimbs and hindlimbs with and without loss of righting reflex, and loss of righting reflex followed by tonic extension of the forelimbs and hind limbs. To have the full picture of the PTZ-induced seizures and of the effects of zinc ionophores, and to make the model more discriminative (White at al., supra) the behavioral reaction of each rat was monitored for a period of 2 hours which is much longer than the usual time period in conventional screening experiments.
PTZ (120 mg/kg) was administered subcutaneously to male Wistar rats (300-450 g). Zinc ionophores were injected i.p. in one bolus, 30 min before PTZ at a dose of 62.5 nmol/kg and a total volume of 0.25-0.4 ml.

[4] = test system: Human umbilical vein endothelial cells (HUVEC)
Experimental: Human umbilical vein endothelial cells (HUVEC) were purchased from Clonetics (San Diego, Calif.) and used from passages 2-4. Cells were cultured on gelatin-coated culture dishes in Endothelial Basal Medium (Clonetics) supplemented with 10 ng/ml human recombinant epidermal growth factor, 1.0 ug/ml hydrocortisone, 50 ug/ml gentamicin, 50 ng/ml amphotetericin B, 12 ug/ml bovine brain extract and 2% v/v fetal bovine serum, in a humidified chamber at 37° C. and 5% CO2. To maintain cell populations, proliferating HUVEC were passaged at 80-90% confluency.
HUVEC were grown to confluency, and then given an additional 24 hours to achieve quiescence prior to experimental treatment. The following treatments were performed:
The cells were washed twice with 37° C. D-PBS and then irradiated in fresh media. Irradiated cells received a dose of 1000 Rads of gamma-irradiation from a ^137Cesium source (Atomic Energy of Canada). The cells were then incubated for 2 hours (cytosolic and nuclear protein extraction) or 8 hours (Hoechst staining and DNA electrophoresis).
Cells were grown on round, gelatin coated 12 mm glass coverslips, and following treatment, were fixed with 0.5 ml of 1% glutaraldehyde in PBS for 10 minutes at room temperature (RT). […] The nuclear morphology of the cells was then visualized under a Zeiss Axiophot fluorescence microscope.

CC1=C(/C=C/C(C)=C/C=C/C(C)=C/CO)C(C)(C)CCC1 [Vitamin A (all-trans-retinol), all-trans-retinol]
zinc ionophore activity [1]: Vitamin A (all-trans-retinol) ✓

[Zn+2] [Zn^2+]
apoptosis of H2O2-treated cells [2]: did not block apoptosis

Oc1cccc2cccnc12 [8-Hydroxyquinoline]
zinc ionophore activity [1]: 8-Hydroxyquinoline, ✓

Oc1c(I)cc(I)c2cccnc12.[Zn] [ZDIHQ, zinc 5,7-diiodo-8-hydroxyquinoline]
latency of clonus with loss of righting reflex ([3]; M ± S.E.M.): 21.2 ± 2.7 min | latency of clonus without loss of righting reflex ([3]; M ± S.E.M.): 15.6 ± 1.7 min | latency of tonic seizure ([3]; M ± S.E.M.): 28.4 ± 4.1 min | increase of survival time (mean time to death) of non-survivors ([3]; rats which died within 2 h): 1.6 fold | zinc ionophore activity [1]: 5,7-Diiodo-8-hydroxyaquinoline ✓✓ | ionophore activity compared between cell types ([1]; HUVEC, cardiac myocytes, cerebellar neurons): comparable in all three cell types tested

[Na+].[O-][n+]1ccccc1[S-] [sodium-pyrithione]
apoptosis in irradiated HUVEC ([4]; 1000 Rads gamma-irradiation, 8 hours): not effective | apoptosis caused in control cultures ([4]; non-irradiated HUVEC): No apoptosis

COc1ccc2c(c1)c(CC(=O)O)c(C)n2C(=O)c1ccc(Cl)cc1 [Indomethacin]
zinc ionophore activity [1]: Indomethacin ✓

Cc1c(C)c2c(c(C)c1O)CC[C@@](C)(CCC[C@H](C)CCC[C@H](C)CCCC(C)C)O2 [Vitamin E (alpha-tocopherol), alpha-tocopherol]
zinc ionophore activity [1]: Vitamin E (alpha-tocopherol) ✓

CCN(CC)C(=S)SSC(=S)N(CC)CC [Disulfiram]
zinc ionophore activity [1]: Disulfiram ✓✓

S=C(S)N1CCCC1 [Pyrrolidinedithiocarbamate]
zinc ionophore activity [1]: Pyrrolidinedithiocarbamate ✓✓
